Source: doi:10.1101/2020.11.19.390633v1 (biorxiv, 2020)

Target: murine wtIDH1 (KPC cells) (Mus musculus, UniProt O88844)
Assay: cell-based IDH activity assay, NADPH synthesis, after IDH2 siRNA
Conditions: KPC murine cells, […] MgSO4, […] h; allosteric

murine wtIDH1 (KPC cells), sequence (O88844 2-414): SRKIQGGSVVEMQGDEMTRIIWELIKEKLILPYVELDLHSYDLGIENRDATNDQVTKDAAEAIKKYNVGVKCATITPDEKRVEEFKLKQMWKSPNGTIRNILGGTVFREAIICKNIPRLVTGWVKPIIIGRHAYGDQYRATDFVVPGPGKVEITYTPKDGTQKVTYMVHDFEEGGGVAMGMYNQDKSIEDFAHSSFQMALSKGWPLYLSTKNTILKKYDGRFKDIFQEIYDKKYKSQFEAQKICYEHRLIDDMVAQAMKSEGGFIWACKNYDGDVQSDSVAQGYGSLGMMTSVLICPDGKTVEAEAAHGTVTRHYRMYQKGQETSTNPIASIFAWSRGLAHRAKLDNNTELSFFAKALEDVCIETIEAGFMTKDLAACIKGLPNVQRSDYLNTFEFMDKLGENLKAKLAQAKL

## N#Cc1ccnc(N2C(=O)CC[C@H]2C(=O)N(c2cncc(F)c2)[C@H](C(=O)NC2CC(F)(F)C2)c2ccccc2Cl)c1 [AG-120]
  EC50: 110 ± 2 nM
